From US20250179047A1, “5-[7-(3,4-DIHYDRO-1H-ISOQUINOLINE-2-CARBONYL)-1,2,3,4 TETRAHYDROISOQUINOLIN-6-YL]-1H-PYRROLE-3-CARBOXAMIDE DERIVATIVES, PHARMACEUTICAL COMPOSITIONS CONTAINING THEM AND THEIR USES AS PRO-APOPTOTIC AGENTS” (LES LABORATOIRES SERVIER, priority 2022, published 2025)

What was measured:
[1] = target: BCL2 WT (Homo sapiens (Human), UniProt P10415); assay: TR-FRET competitive binding assay, BCL2 WT; details: Ki determined from IC50, read-out: TR_FRET EKI_Bcl2 WT
In short: (§1)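 Competitive TR-FRET displacement of fluorescein-PUMA peptide (2 or 20 nM) from 0.5 nM terbium-labelled N-terminal Halo-fusion BCL2 (1-207, wild type or mutant) or BCLXL (2-196), expressed in E. coli. Buffer 50 mM Hepes pH 7.5, 150 mM NaCl, 5% DMSO; 2 h at 23°C. 520/495 nm ratio fitted over 11 points for IC50, converted to Ki.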

[2] = target: BCL2 D103Y (Homo sapiens, UniProt P10415, D103Y); assay: TR-FRET competitive binding assay, BCL2 D103Y; details: Ki determined from IC50, read-out: TR_FRET EKI_Bcl2 D103Y
In short: as §1

[3] = tested on: KMS-12-PE Bcl-2 G101V; assay: In vitro cytotoxicity CellTiter-Glo 48 h, KMS-12-PE Bcl-2 G101V; type: cell-based; details: for Ratio (G101V/WT): C50 KMS-12-PE Bcl-2 G101V over C50 KMS-12-PE Bcl-2 WT; for IC50: CellTiter-Glo, 48 h, C50 = concentration needed to reach 50% of the cellular viability
Description: KMS-12-PE (ACC 606) were purchased from the Leibniz-Institute DSMZ (Braunschweig, Germany) and were grown at 37° C. in a humidified atmosphere with […] in media recommended by the suppliers. Lentiviral particles containing Bcl-2 wild type (also named “Bcl2 WT”) and Bcl-2 mutated on G101V (also named “Bcl2 G101V”) were cloned into pcLV-CMV-DEST-IRES-TagRFP. Lentiviral particles (1×106) were mixed with Polybrene at 8 µg/ml and transduced by spinoculation for 1 h at 32° C. and incubated overnight. After 8 days, TagRFP positive-cells were sorted by FACS. BCL2 expression was monitored by immunoblotting using anti-Flag and anti-BCL2 antibodies.
Cellular viability was monitored with the cell viability assay (CellTiter-Glo®) on KMS-12-PE WT and G101V cell lines. The CellTiter-Glo® (CTG) Luminescent Cell Viability Assay (from Promega) is a homogeneous method to determine the number of viable cells in culture based on quantitation of the ATP present, which signals the presence of metabolically active cells.
Dose response of compounds are performed with 10 mM stock solutions (DMSO), 11-points curve, in a 384-well compound plate. The assay plate is prepared by stamping 40 nL from compound dilution plate of all different concentrations (e.g. 10 mM to have final […] assay test) into a cell culture microplate, using Echo acoustic liquid handling (Labcyte, Beckman). 40 μl of cell solution is added and cells are incubated with compounds for 48 h at 37° C., 5% CO2. CTG was added to the cells (according to the manufacturer instructions) and luminescence intensity was recorded using the Pherastar plate reader (BMG).
This assay provides in vitro cellular potency of the tested Bcl-2 inhibitors, measuring the C50, defined as the concentration needed to reach 50% of the cellular viability.

[4] = target: BCL2 G101V (Homo sapiens, UniProt P10415, G101V); assay: TR-FRET competitive binding assay, BCL2 G101V; details: BCL2 G101V; Ki determined from IC50; read-out: TR_FRET EKI_Bcl2 G101V
In short: as §1

[5] = tested on: BCL2 G101V; assay: TR-FRET competitive binding assay, BCL2 G101V; parameters: species or system human; details: ratio Ki BCL2 G101V / Ki BCL2 WT
In short: as §1

[6] = tested on: KMS-12-PE Bcl-2 WT; assay: In vitro cytotoxicity CellTiter-Glo 48 h, KMS-12-PE Bcl-2 WT; type: cell-based; details: C50 = concentration needed to reach 50% of the cellular viability
In short: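 Potency is expressed as C50, the compound concentration at which viability of engineered KMS-12-PE cells (Bcl-2 wild type or G101V) falls to 50%, determined from CellTiter-Glo luminescence after 48 h of treatment over 11 concentrations.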

[7] = target: BCLXL WT (Homo sapiens (Human), UniProt Q07817); assay: TR-FRET competitive binding assay, BCLXL WT; details: for Ki: BCLXL WT, Ki determined from IC50, read-out: TR_FRET EKI BclxL; for TR_FRET EKI BCLxL/WT selectivty ratio: ratio Ki BCLxL / Ki BCL2 WT
In short: as §1

BCLXL WT, sequence (Q07817 other isoform, or with tags, fused parts or gaps): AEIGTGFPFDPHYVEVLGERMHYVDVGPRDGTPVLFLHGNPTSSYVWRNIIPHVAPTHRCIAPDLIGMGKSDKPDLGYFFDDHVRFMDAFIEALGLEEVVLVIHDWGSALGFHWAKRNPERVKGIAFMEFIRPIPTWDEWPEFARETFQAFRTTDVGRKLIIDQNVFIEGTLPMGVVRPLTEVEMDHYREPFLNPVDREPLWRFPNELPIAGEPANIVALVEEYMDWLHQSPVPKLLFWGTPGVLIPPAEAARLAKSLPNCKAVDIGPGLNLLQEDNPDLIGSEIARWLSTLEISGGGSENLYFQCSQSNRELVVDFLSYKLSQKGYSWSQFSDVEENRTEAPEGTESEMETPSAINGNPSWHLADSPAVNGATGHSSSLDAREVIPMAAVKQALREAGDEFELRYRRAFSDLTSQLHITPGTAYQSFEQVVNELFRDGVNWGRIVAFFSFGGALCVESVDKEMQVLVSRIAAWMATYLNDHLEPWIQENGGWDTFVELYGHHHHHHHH

Row | Compound | Ki [1] [nM] | Ki [2] [nM] | Ratio (G101V/WT) [3] | IC50 [3] [µM] | Ki [4] [nM] | TR_FRET EKI G101V/WT selectivty ratio [5] | IC50 [6] [µM] | Ki [7] [nM] | TR_FRET EKI BCLxL/WT selectivty ratio [7] | IC50 ([3]; Homo sapiens, KMS-12-PE) [µM] | IC50 ([6]; Homo sapiens, KMS-12-PE) [µM]
1 | Cc1c(N(C(=O)c2cc(-c3cc4c(cc3C(=O)N3Cc5ccccc5C[C@H]3CN3CCCCC3)CN(C(=O)Cc3ccc(OCCC5COCCO5)cc3F)CC4)n(C)c2C)c2ccc(O)cc2)cc(C#N)n1C (single isomer, unassigned) [Example 175, N-(5-cyano-1,2-dimethyl-pyrrol-3-yl)-5-[2-[2-[4-[2-((2R or S)-1,4-dioxan-2-yl)ethoxy]-2-fluoro-phenyl]acetyl]-7-[(3S)-3-(1-piperidylmethyl)-3,4-dihydro-1H-isoquinoline-2-carbonyl]-3,4-dihydro-1H-isoquinolin-6-yl]-N-(4-hydroxyphenyl)-1,2-dimethyl-pyrrole-3-carboxamide] | 0.08 | 0.34 | 6.335 | 0.0261 | 0.5 | 7.0 | 0.0041 | 3.1 | 40.8 |  | 
2 | Cc1c(N(C(=O)c2cc(-c3cc4c(cc3C(=O)N3Cc5ccccc5C[C@H]3C)CN(C(=O)Cc3ccc(Oc5ccccc5)cc3)CC4)n(C)c2C)c2ccc(O)cc2)cc(C#N)n1C [Example 10, N-(5-cyano-1,2-dimethyl-1H-pyrrol-3-yl)-N-(4-hydroxyphenyl)-1,2-dimethyl-5-{7-[(3R)-3-methyl-1,2,3,4-tetrahydroisoquinoline-2-carbonyl]-2-[2-(4-phenoxyphenyl)acetyl]-1,2,3,4-tetrahydroisoquinolin-6-yl}-1H-pyrrole-3-carboxamide] | 2.2 | 2.98 | 4.58 |  | 5.7 | 2.6 |  | 31.2 | 14.2 | 0.0641 | 0.014
3 | Cc1c(N(C(=O)c2cc(-c3cc4c(cc3C(=O)N3Cc5ccccc5C[C@H]3C)CN(C(=O)Cc3ccc(F)cc3F)CC4)n(C)c2C)c2ccc(O)cc2)cc(C#N)n1C [Example 11, N-(5-cyano-1,2-dimethyl-1H-pyrrol-3-yl)-5-{2-[2-(2,4-difluorophenyl)acetyl]-7-[(3R)-3-methyl-1,2,3,4-tetrahydroisoquinoline-2-carbonyl]-1,2,3,4-tetrahydroisoquinolin-6-yl}-N-(4-hydroxyphenyl)-1,2-dimethyl-1H-pyrrole-3-carboxamide] | 0.34 | 0.55 | 7.05 |  | 1.3 | 3.8 |  | 4.8 | 14.1 | 0.0249 | 0.0035
4 | Cc1c(N(C(=O)c2cc(-c3cc4c(cc3C(=O)N3Cc5ccccc5C[C@H]3C)CN(C(=O)Cc3ccccc3)CC4)n(C)c2C)c2ccc(O)cc2F)cc(C#N)n1C [Example 13, N-(5-cyano-1,2-dimethyl-1H-pyrrol-3-yl)-N-(2-fluoro-4-hydroxyphenyl)-1,2-dimethyl-5-{7-[(3R)-3-methyl-1,2,3,4-tetrahydroisoquinoline-2-carbonyl]-2-(2-phenylacetyl)-1,2,3,4-tetrahydroisoquinolin-6-yl}-1H-pyrrole-3-carboxamide] | 1 | 2.35 | 5.37 |  | 2 | 2.0 |  | 4.6 | 4.6 | 0.0704 | 0.0131
5 | Cc1c(N(C(=O)c2cc(-c3cc4c(cc3C(=O)N3Cc5ccccc5C[C@H]3C)CN(C(=O)c3n[nH]c5ccccc35)CC4)n(C)c2C)c2ccc(O)cc2)cc(C#N)n1C [Example 15, N-(5-cyano-1,2-dimethyl-1H-pyrrol-3-yl)-N-(4-hydroxyphenyl)-5-[2-(1H-indazole-3-carbonyl)-7-[(3R)-3-methyl-1,2,3,4-tetrahydroisoquinoline-2-carbonyl]-1,2,3,4-tetrahydroisoquinolin-6-yl]-1,2-dimethyl-1H-pyrrole-3-carboxamide] | 0.67 | 3.01 | 4.3 |  | 6.1 | 9.1 |  | 8.4 | 12.5 | 0.0714 | 0.0166
6 | Cc1c(N(C(=O)c2cc(-c3cc4c(cc3C(=O)N3Cc5ccccc5C[C@H]3C)CN(C(=O)Cc3ccc(Cl)cc3F)CC4)n(C)c2C)c2ccc(O)cc2)cc(C#N)n1C [Example 19, 5-{2-[2-(4-chloro-2-fluorophenyl)acetyl]-7-[(3R)-3-methyl-1,2,3,4-tetrahydroisoquinoline-2-carbonyl]-1,2,3,4-tetrahydroisoquinolin-6-yl}-N-(5-cyano-1,2-dimethyl-1H-pyrrol-3-yl)-N-(4-hydroxyphenyl)-1,2-dimethyl-1H-pyrrole-3-carboxamide] | 0.4 | 0.97 | 6.91 |  | 1.9 | 4.8 |  | 7.4 | 18.5 | 0.0423 | 0.0061
7 | Cc1c(N(C(=O)c2cc(-c3cc4c(cc3C(=O)N3Cc5ccccc5C[C@H]3C)CN(C(=O)C3Cc5ccccc5O3)CC4)n(C)c2C)c2ccc(O)cc2)cc(C#N)n1C (stereo partly drawn) [Example 20, N-(5-cyano-1,2-dimethylpyrrol-3-yl)-5-{2-[(2,3-dihydro-1-benzofuran-2-yl)carbonyl]-7-{[(3R)-3-methyl-3,4-dihydro-1H-isoquinolin-2-yl]carbonyl}-3,4-dihydro-1H-isoquinolin-6-yl}-N-(4-hydroxyphenyl)-1,2-dimethylpyrrole-3-carboxamide] | 0.53 | 0.68 | 6.74 |  | 2.7 | 5.0 |  | 6.6 | 12.5 | 0.0681 | 0.0101
8 | Cc1c(C(=O)N(c2ccc(O)cc2)c2cc(C#N)n(CCN(C)C3CC3)c2C)cc(-c2cc3c(cc2C(=O)N2Cc4ccccc4C[C@H]2C)CN(C(=O)Cc2ccccc2)CC3)n1C [Example 22, N-[5-cyano-1-[2-[cyclopropyl(methyl)amino]ethyl]-2-methyl-pyrrol-3-yl]-N-(4-hydroxyphenyl)-1,2-dimethyl-5-[7-[(3R)-3-methyl-3,4-dihydro-1H-isoquinoline-2-carbonyl]-2-(2-phenylacetyl)-3,4-dihydro-1H-isoquinolin-6-yl]pyrrole-3-carboxamide] | 0.2 | 0.82 | 8.47 |  | 1 | 5.0 |  | 2.3 | 11.5 | 0.0864 | 0.0102
9 | Cc1c(N(C(=O)c2cc(-c3cc4c(cc3C(=O)N3Cc5ccccc5C[C@H]3C)CN(C(=O)Cc3ccc(Br)cc3F)CC4)n(C)c2C)c2ccc(O)cc2)cc(C#N)n1C [Example 24, 5-{2-[2-(4-bromo-2-fluorophenyl)acetyl]-7-[(3R)-3-methyl-1,2,3,4-tetrahydroisoquinoline-2-carbonyl]-1,2,3,4-tetrahydroisoquinolin-6-yl}-N-(5-cyano-1,2-dimethyl-1H-pyrrol-3-yl)-N-(4-hydroxyphenyl)-1,2-dimethyl-1H-pyrrole-3-carboxamide] | 0.53 | 1.02 | 7.19 |  | 1.8 | 3.4 |  | 6.1 | 11.5 | 0.0423 | 0.0059
